# Patent publication US10485235B2, “Aryloxypyrimidinyl ethers as herbicides” (FMC Corporation, priority 2015, dated 2019)
# Test system: barnyardgrass (Echinochloa crus-galli)
# Assay: Test A preemergence, barnyardgrass
# Format: in vivo
# Settings: Preemergence, 31 g ai/ha; 0 to 100 scale (0 no effect, 100 complete control)
# Procedure, shortened: (§1)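 Visual injury rating versus untreated controls on a 0 to 100 scale (0 = no effect, 100 = complete control), taken about 10 days after treatment in the greenhouse. Preemergence: directed soil spray over seeded loam–sand. Postemergence: spray on one- to two-leaf plants, 2 to 10 cm tall.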
row,SMILES,"Plant response rating, Barnyardgrass"
1,N#Cc1cccc(Oc2ncc(Cl)cn2)c1OCCCCC(F)(F)F [Compound 32],30

# Same assay, conditions: Preemergence, 125 g ai/ha; 0 to 100 scale (0 no effect, 100 complete control)
row,SMILES,"Plant response rating, Barnyardgrass"
1,N#Cc1cccc(Oc2ncc(Cl)cn2)c1OCCCCC(F)(F)F [Compound 32],100

# Test system: kochia (Kochia scoparia)
# Assay: Test A preemergence, kochia
# Format: in vivo
# Settings: Preemergence, 31 g ai/ha; 0 to 100 scale (0 no effect, 100 complete control)
# Procedure, shortened: as §1
row,SMILES,"Plant response rating, Kochia"
1,N#Cc1cccc(Oc2ncc(Cl)cn2)c1OCCCCC(F)(F)F [Compound 32],30

# Same assay, conditions: Preemergence, 125 g ai/ha; 0 to 100 scale (0 no effect, 100 complete control)
row,SMILES,"Plant response rating, Kochia"
1,N#Cc1cccc(Oc2ncc(Cl)cn2)c1OCCCCC(F)(F)F [Compound 32],90

# Test system: ragweed (common ragweed, Ambrosia elatior)
# Assay: Test A preemergence, ragweed
# Format: in vivo
# Settings: Preemergence, 31 g ai/ha; 0 to 100 scale (0 no effect, 100 complete control)
# Procedure, shortened: as §1
row,SMILES,"Plant response rating, Ragweed"
1,N#Cc1cccc(Oc2ncc(Cl)cn2)c1OCCCCC(F)(F)F [Compound 32],0

# Same assay, conditions: Preemergence, 125 g ai/ha; 0 to 100 scale (0 no effect, 100 complete control)
row,SMILES,"Plant response rating, Ragweed"
1,N#Cc1cccc(Oc2ncc(Cl)cn2)c1OCCCCC(F)(F)F [Compound 32],10

# Test system: ryegrass, Italian (Italian ryegrass, Lolium multiflorum)
# Assay: Test A preemergence, Italian ryegrass
# Format: in vivo
# Settings: Preemergence, 31 g ai/ha; 0 to 100 scale (0 no effect, 100 complete control)
# Procedure, shortened: as §1
row,SMILES,"Plant response rating, Ryegrass, Italian"
1,N#Cc1cccc(Oc2ncc(Cl)cn2)c1OCCCCC(F)(F)F [Compound 32],10

# Same assay, conditions: Preemergence, 125 g ai/ha; 0 to 100 scale (0 no effect, 100 complete control)
row,SMILES,"Plant response rating, Ryegrass, Italian"
1,N#Cc1cccc(Oc2ncc(Cl)cn2)c1OCCCCC(F)(F)F [Compound 32],30

# Test system: foxtail, giant (giant foxtail, Setaria faberii)
# Assay: Test A preemergence, giant foxtail
# Format: in vivo
# Settings: Preemergence, 31 g ai/ha; 0 to 100 scale (0 no effect, 100 complete control)
# Procedure, shortened: as §1
row,SMILES,"Plant response rating, Foxtail, Giant"
1,N#Cc1cccc(Oc2ncc(Cl)cn2)c1OCCCCC(F)(F)F [Compound 32],100

# Same assay, conditions: Preemergence, 125 g ai/ha; 0 to 100 scale (0 no effect, 100 complete control)
row,SMILES,"Plant response rating, Foxtail, Giant"
1,N#Cc1cccc(Oc2ncc(Cl)cn2)c1OCCCCC(F)(F)F [Compound 32],100

# Test system: pigweed (Amaranthus retroflexus)
# Assay: Test A preemergence, pigweed
# Format: in vivo
# Settings: Preemergence, 31 g ai/ha; 0 to 100 scale (0 no effect, 100 complete control)
# Procedure, shortened: as §1
row,SMILES,"Plant response rating, Pigweed"
1,N#Cc1cccc(Oc2ncc(Cl)cn2)c1OCCCCC(F)(F)F [Compound 32],100

# Same assay, conditions: Preemergence, 125 g ai/ha; 0 to 100 scale (0 no effect, 100 complete control)
row,SMILES,"Plant response rating, Pigweed"
1,N#Cc1cccc(Oc2ncc(Cl)cn2)c1OCCCCC(F)(F)F [Compound 32],100

# Test system: barnyardgrass (Echinochloa crus-galli)
# Assay: Test A postemergence, barnyardgrass
# Format: in vivo
# Settings: 31 g ai/ha, postemergence; 0 to 100 scale, 0 is no effect, 100 is complete control; approximately 10 days
# Procedure, shortened: as §1
row,SMILES,"Plant response rating, Barnyardgrass"
1,N#Cc1cccc(Oc2ncc(Cl)cn2)c1OCCCCC(F)(F)F [Compound 32],60

# Same assay, conditions: 125 g ai/ha, postemergence; 0 to 100 scale, 0 is no effect, 100 is complete control; approximately 10 days
row,SMILES,"Plant response rating, Barnyardgrass"
1,N#Cc1cccc(Oc2ncc(Cl)cn2)c1OCCCCC(F)(F)F [Compound 32],100

# Test system: kochia (Kochia scoparia)
# Assay: Test A postemergence, kochia
# Format: in vivo
# Settings: 31 g ai/ha, postemergence; 0 to 100 scale, 0 is no effect, 100 is complete control; approximately 10 days
# Procedure, shortened: as §1
row,SMILES,"Plant response rating, Kochia"
1,N#Cc1cccc(Oc2ncc(Cl)cn2)c1OCCCCC(F)(F)F [Compound 32],100

# Same assay, conditions: 125 g ai/ha, postemergence; 0 to 100 scale, 0 is no effect, 100 is complete control; approximately 10 days
row,SMILES,"Plant response rating, Kochia"
1,N#Cc1cccc(Oc2ncc(Cl)cn2)c1OCCCCC(F)(F)F [Compound 32],100

# Test system: ragweed (common ragweed, Ambrosia elatior)
# Assay: Test A postemergence, ragweed
# Format: in vivo
# Settings: 31 g ai/ha, postemergence; 0 to 100 scale, 0 is no effect, 100 is complete control; approximately 10 days
# Procedure, shortened: as §1
row,SMILES,"Plant response rating, Ragweed"
1,N#Cc1cccc(Oc2ncc(Cl)cn2)c1OCCCCC(F)(F)F [Compound 32],10

# Same assay, conditions: 125 g ai/ha, postemergence; 0 to 100 scale, 0 is no effect, 100 is complete control; approximately 10 days
row,SMILES,"Plant response rating, Ragweed"
1,N#Cc1cccc(Oc2ncc(Cl)cn2)c1OCCCCC(F)(F)F [Compound 32],10

# Test system: ryegrass, Italian (Italian ryegrass, Lolium multiflorum)
# Assay: Test A postemergence, Italian ryegrass
# Format: in vivo
# Settings: 31 g ai/ha, postemergence; 0 to 100 scale, 0 is no effect, 100 is complete control; approximately 10 days
# Procedure, shortened: as §1
row,SMILES,"Plant response rating, Ryegrass, Italian"
1,N#Cc1cccc(Oc2ncc(Cl)cn2)c1OCCCCC(F)(F)F [Compound 32],10

# Same assay, conditions: 125 g ai/ha, postemergence; 0 to 100 scale, 0 is no effect, 100 is complete control; approximately 10 days
row,SMILES,"Plant response rating, Ryegrass, Italian"
1,N#Cc1cccc(Oc2ncc(Cl)cn2)c1OCCCCC(F)(F)F [Compound 32],30

# Test system: foxtail, giant (giant foxtail, Setaria faberii)
# Assay: Test A postemergence, giant foxtail
# Format: in vivo
# Settings: 31 g ai/ha, postemergence; 0 to 100 scale, 0 is no effect, 100 is complete control; approximately 10 days
# Procedure, shortened: as §1
row,SMILES,"Plant response rating, Foxtail, Giant"
1,N#Cc1cccc(Oc2ncc(Cl)cn2)c1OCCCCC(F)(F)F [Compound 32],50

# Same assay, conditions: 125 g ai/ha, postemergence; 0 to 100 scale, 0 is no effect, 100 is complete control; approximately 10 days
row,SMILES,"Plant response rating, Foxtail, Giant"
1,N#Cc1cccc(Oc2ncc(Cl)cn2)c1OCCCCC(F)(F)F [Compound 32],80

# Test system: pigweed (Amaranthus retroflexus)
# Assay: Test A postemergence, pigweed
# Format: in vivo
# Settings: 31 g ai/ha, postemergence; 0 to 100 scale, 0 is no effect, 100 is complete control; approximately 10 days
# Procedure, shortened: as §1
row,SMILES,"Plant response rating, Pigweed"
1,N#Cc1cccc(Oc2ncc(Cl)cn2)c1OCCCCC(F)(F)F [Compound 32],100

# Same assay, conditions: 125 g ai/ha, postemergence; 0 to 100 scale, 0 is no effect, 100 is complete control; approximately 10 days
row,SMILES,"Plant response rating, Pigweed"
1,N#Cc1cccc(Oc2ncc(Cl)cn2)c1OCCCCC(F)(F)F [Compound 32],100

# Test system: wheat (Triticum aestivum)
# Assay: Test A postemergence, wheat
# Format: in vivo
# Settings: 31 g ai/ha, postemergence; 0 to 100 scale, 0 is no effect, 100 is complete control; approximately 10 days
# Procedure, shortened: as §1
row,SMILES,"Plant response rating, Wheat"
1,N#Cc1cccc(Oc2ncc(Cl)cn2)c1OCCCCC(F)(F)F [Compound 32],20

# Same assay, conditions: 125 g ai/ha, postemergence; 0 to 100 scale, 0 is no effect, 100 is complete control; approximately 10 days
row,SMILES,"Plant response rating, Wheat"
1,N#Cc1cccc(Oc2ncc(Cl)cn2)c1OCCCCC(F)(F)F [Compound 32],30

# Test system: corn (Zea mays)
# Assay: Test A postemergence, corn
# Format: in vivo
# Settings: 31 g ai/ha, postemergence; 0 to 100 scale, 0 is no effect, 100 is complete control; approximately 10 days
# Procedure, shortened: as §1
row,SMILES,"Plant response rating, Corn"
1,N#Cc1cccc(Oc2ncc(Cl)cn2)c1OCCCCC(F)(F)F [Compound 32],10

# Same assay, conditions: 125 g ai/ha, postemergence; 0 to 100 scale, 0 is no effect, 100 is complete control; approximately 10 days
row,SMILES,"Plant response rating, Corn"
1,N#Cc1cccc(Oc2ncc(Cl)cn2)c1OCCCCC(F)(F)F [Compound 32],20

# Test system: blackgrass (Alopecurus myosuroides)
# Assay: Test A postemergence, blackgrass
# Format: in vivo
# Settings: 31 g ai/ha, postemergence; 0 to 100 scale, 0 is no effect, 100 is complete control; approximately 10 days
# Procedure, shortened: as §1
row,SMILES,"Plant response rating, Blackgrass"
1,N#Cc1cccc(Oc2ncc(Cl)cn2)c1OCCCCC(F)(F)F [Compound 32],30

# Same assay, conditions: 125 g ai/ha, postemergence; 0 to 100 scale, 0 is no effect, 100 is complete control; approximately 10 days
row,SMILES,"Plant response rating, Blackgrass"
1,N#Cc1cccc(Oc2ncc(Cl)cn2)c1OCCCCC(F)(F)F [Compound 32],50

# Test system: galium (catchweed bedstraw, Galium aparine)
# Assay: Test A postemergence, galium
# Format: in vivo
# Settings: 31 g ai/ha, postemergence; 0 to 100 scale, 0 is no effect, 100 is complete control; approximately 10 days
# Procedure, shortened: as §1
row,SMILES,"Plant response rating, Galium"
1,N#Cc1cccc(Oc2ncc(Cl)cn2)c1OCCCCC(F)(F)F [Compound 32],70

# Same assay, conditions: 125 g ai/ha, postemergence; 0 to 100 scale, 0 is no effect, 100 is complete control; approximately 10 days
row,SMILES,"Plant response rating, Galium"
1,N#Cc1cccc(Oc2ncc(Cl)cn2)c1OCCCCC(F)(F)F [Compound 32],100

# Test system: rice (Oryza sativa)
# Assay: Test B flooded paddy test, rice
# Format: in vivo
# Settings: 250 g ai/ha, Flood; visual rating after 13 to 15 days; scale 0 to 100, 0 is no effect, 100 is complete control
# Procedure, shortened: (§2)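 Plants grown to the 2-leaf stage; pots flooded to 3 cm above soil and compounds applied directly into the paddy water, depth held throughout. After 13 to 15 days in the greenhouse, injury was rated visually against untreated controls on a 0–100 scale (0 no effect, 100 complete control).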
row,SMILES,"Plant response rating, Rice"
1,N#Cc1cccc(Oc2ncc(Cl)cn2)c1OCCCCC(F)(F)F [Compound 32],40

# Test system: sedge, umbrella (small-flower umbrella sedge, Cyperus difformis)
# Assay: Test B flooded paddy test, umbrella sedge
# Format: in vivo
# Settings: 250 g ai/ha, Flood; visual rating after 13 to 15 days; scale 0 to 100, 0 is no effect, 100 is complete control
# Procedure, shortened: as §2
row,SMILES,"Plant response rating, Sedge, Umbrella"
1,N#Cc1cccc(Oc2ncc(Cl)cn2)c1OCCCCC(F)(F)F [Compound 32],100

# Test system: ducksalad (Heteranthera limosa)
# Assay: Test B flooded paddy test, ducksalad
# Format: in vivo
# Settings: 250 g ai/ha, Flood; visual rating after 13 to 15 days; scale 0 to 100, 0 is no effect, 100 is complete control
# Procedure, shortened: as §2
row,SMILES,"Plant response rating, Ducksalad"
1,N#Cc1cccc(Oc2ncc(Cl)cn2)c1OCCCCC(F)(F)F [Compound 32],90

# Test system: barnyardgrass (Echinochloa crus-galli)
# Assay: Test B flooded paddy test, barnyardgrass
# Format: in vivo
# Settings: 250 g ai/ha, Flood; visual rating after 13 to 15 days; scale 0 to 100, 0 is no effect, 100 is complete control
# Procedure, shortened: as §2
row,SMILES,"Plant response rating, Barnyardgrass"
1,N#Cc1cccc(Oc2ncc(Cl)cn2)c1OCCCCC(F)(F)F [Compound 32],30
